“And” between values parts separate entries of the source, which are not always exact repeats. Equal values may be shown once.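 Compound exposure: 48 hours, 5 concentrations, 96-well plates. Here, GI50 denotes the concentration required for 50% inhibition of growth. TGI: total growth inhibition.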

Some test systems named below: HL-60(TB) leukemia; SK-MEL-28 melanoma; RPMI-8226 leukemia; NCI-H226 lung; CAKI-1 renal; EKVX NSCLC; UACC-62 melanoma; HS 578T breast; SN12C renal; COLO 205 colon.
What all share (test): inhibition of tumour cell growth, NCI panel, 48 h

With `Cc1[nH]nc(C(=O)N/N=C/c2ccccc2Cl)c1N=NN(C)C`, the TGI in the assay on HL-60(TB) leukemia, in the assay on SK-MEL-28 melanoma, with RPMI-8226 leukemia, in the assay with NCI-H226 lung, in the assay with CAKI-1 renal and in the assay on EKVX NSCLC was above 100 µM each time. Also, the TGI in the assay on UACC-62 melanoma was above 100 µM; in the assay on HS 578T breast, above 61.9 µM; in the assay with SN12C renal, above 100 µM; in the assay on COLO 205 colon, above 100 µM.
With `Nc1n[nH]c2ccc([C@@H]3Nc4ccc5cn[nH]c5c4[C@H]4C5CCC(C5)[C@@H]34)cc12` (stereo partly specified), the GI50 in the assay on HL-60(TB) leukemia was 0.326 µM; in the assay on SK-MEL-28 melanoma, 1.05 µM; in the assay on RPMI-8226 leukemia it was 0.346 µM; with NCI-H226 lung, 0.977 µM; with CAKI-1 renal, 0.347 µM; in the assay with EKVX NSCLC, 0.554 µM. The GI50 in the assay on UACC-62 melanoma was 0.389 µM; in the assay on HS 578T breast, 0.389 µM; in the assay on SN12C renal it was 0.747 µM; with COLO 205 colon it was 0.332 µM. Besides, the TGI in the assay with SK-MEL-28 melanoma was above 100 µM; in the assay with RPMI-8226 leukemia, 11.1 µM; in the assay with NCI-H226 lung, 50 µM; with CAKI-1 renal, above 48.8 µM; with EKVX NSCLC, above 100 µM; in the assay on UACC-62 melanoma, 34.3 µM. The TGI with HS 578T breast was above 100 µM; with SN12C renal it was above 100 µM; in the assay with COLO 205 colon, 3.03 µM.
As for `COc1cc2c(cc1-c1coc3cc(O)ccc3c1=O)OCO2`, the TGI in the assay on HL-60(TB) leukemia was above 100 µM; with SK-MEL-28 melanoma, above 100 µM; with RPMI-8226 leukemia, 77.5 µM; in the assay with NCI-H226 lung it was 40.2 µM; with CAKI-1 renal, 51.1 µM; in the assay on EKVX NSCLC, above 100 µM. In addition, the TGI with UACC-62 melanoma was 63.9 µM; in the assay on HS 578T breast, 58.2 µM; with SN12C renal it was 67.2 µM; with COLO 205 colon, above 100 µM.
Consider `Cc1cc(C)c2c(c1)N(C)c1ncnc(-n3cnc4cc(C)ccc43)c1CC2C` (stereo unspecified), for which the GI50 was 2.46 µM in the assay with HL-60(TB) leukemia; 5.61 µM with SK-MEL-28 melanoma; 2.59 µM in the assay on RPMI-8226 leukemia; 3.1 µM with NCI-H226 lung; 3.37 µM in the assay on CAKI-1 renal; 4.76 µM with EKVX NSCLC. Further, the GI50 with UACC-62 melanoma is 3.13 µM; in the assay on HS 578T breast, 3 µM; in the assay with SN12C renal, 4.37 µM; in the assay on COLO 205 colon, 3.32 µM. The TGI is 9.36 µM in the assay with HL-60(TB) leukemia; 20.7 µM in the assay with SK-MEL-28 melanoma; 9.08 µM in the assay on RPMI-8226 leukemia; 17.9 µM in the assay with NCI-H226 lung; 70.2 µM with CAKI-1 renal; above 100 µM in the assay on EKVX NSCLC. The TGI was determined as 18.4 µM in the assay on UACC-62 melanoma, 31 µM with HS 578T breast, 19.7 µM in the assay with SN12C renal and 10.5 µM in the assay with COLO 205 colon.
Take `COc1cc2c(cc1OCCCN1CCN(C(=S)SCCC(C#N)(c3ccccc3)c3ccccc3)CC1)N=C[C@@H]1CCCN1C2=O`: the GI50 with HL-60(TB) leukemia is 0.876 µM; in the assay on SK-MEL-28 melanoma, 1.65 µM; with RPMI-8226 leukemia it was 0.42 µM; in the assay on NCI-H226 lung it was 1.51 µM; with CAKI-1 renal it was 0.357 µM; in the assay on EKVX NSCLC, 2.17 µM. For the same molecule, the GI50 was 1.13 µM with UACC-62 melanoma, 0.56 µM in the assay with HS 578T breast, 0.82 µM in the assay with SN12C renal and 1.3 µM in the assay on COLO 205 colon. Besides, the TGI in the assay on SK-MEL-28 melanoma was found to be 3.07 µM; in the assay on NCI-H226 lung it was 3.15 µM; in the assay with CAKI-1 renal, 1.48 µM; in the assay on EKVX NSCLC, 5.27 µM; with UACC-62 melanoma, 2.38 µM; in the assay on HS 578T breast, 3.68 µM. Moreover, the TGI in the assay on SN12C renal turned out to be 2.5 µM; in the assay on COLO 205 colon it was 2.78 µM.
As for `COC(=O)c1cccc(NC(=O)c2ccc(NC3=C(Cl)C(=O)N(Cc4ccccc4)C3=O)cc2)c1`, the GI50 in the assay with HL-60(TB) leukemia was 16.8 µM; in the assay with SK-MEL-28 melanoma, 15.2 µM; in the assay with RPMI-8226 leukemia, 10.7 µM; in the assay on NCI-H226 lung, 7.25 µM; in the assay with CAKI-1 renal, 1.72 µM; in the assay on EKVX NSCLC, 23.6 µM. Moreover, the GI50 in the assay on UACC-62 melanoma was 11.7 µM; in the assay on HS 578T breast, 22 µM; with SN12C renal it was 4.69 µM; in the assay with COLO 205 colon, 21.4 µM. The TGI was found to be 38.8 µM in the assay with HL-60(TB) leukemia; 52 µM with SK-MEL-28 melanoma; 23.9 µM in the assay on RPMI-8226 leukemia; 35.2 µM in the assay with NCI-H226 lung; 3.14 µM with CAKI-1 renal; 63.6 µM with EKVX NSCLC. Also, the TGI is 25.4 µM with UACC-62 melanoma, 69.4 µM in the assay with HS 578T breast, 23.6 µM in the assay on SN12C renal and above 100 µM with COLO 205 colon.
`C[C@]12CC[C@@H]3c4ccc(OC(=O)N(CCCl)CCCl)cc4CC[C@H]3[C@@H]1CC[C@@H]2OP(=O)(O)O`: the GI50 with HL-60(TB) leukemia is 30.1 µM; with SK-MEL-28 melanoma, 37.3 µM; in the assay on RPMI-8226 leukemia it was 39.8 µM; in the assay on NCI-H226 lung it was 43.7 µM; in the assay with CAKI-1 renal, above 77.1 µM; with EKVX NSCLC, 33.2 µM. Also, the GI50 is 22.9 µM in the assay on UACC-62 melanoma, 26.7 µM with HS 578T breast, 17.2 µM in the assay on SN12C renal and 57.8 µM with COLO 205 colon. The TGI in the assay with HL-60(TB) leukemia is 98.5 µM; in the assay on SK-MEL-28 melanoma it was above 100 µM; with RPMI-8226 leukemia, above 100 µM; in the assay on NCI-H226 lung, above 100 µM; with CAKI-1 renal it was above 100 µM; in the assay with EKVX NSCLC, above 100 µM. Also, the TGI in the assay on UACC-62 melanoma is above 72.5 µM; in the assay with HS 578T breast it was above 76.9 µM; in the assay with SN12C renal it was 40.1 µM; in the assay on COLO 205 colon, above 100 µM.
Turning to `COCCn1c2c([n+](Cc3cnccn3)c1C)C(=O)c1ccccc1C2=O`, the GI50 with HL-60(TB) leukemia is below 0.01 µM; in the assay with SK-MEL-28 melanoma, 0.0164 µM; with RPMI-8226 leukemia, below 0.01 µM; in the assay with NCI-H226 lung, below 0.0143 µM; with CAKI-1 renal it was 2.72 µM; in the assay with EKVX NSCLC it was below 0.01 µM. The GI50 is 0.0185 µM in the assay with UACC-62 melanoma, 0.302 µM in the assay with HS 578T breast, below 0.01 µM in the assay on SN12C renal and 0.0235 µM with COLO 205 colon. Besides, the TGI in the assay on HL-60(TB) leukemia is below 0.01 µM; in the assay with SK-MEL-28 melanoma, 0.0419 µM; in the assay with RPMI-8226 leukemia it was below 0.0114 µM; with NCI-H226 lung it was 0.0293 µM; in the assay on CAKI-1 renal it was above 100 µM; in the assay on EKVX NSCLC it was 0.0162 µM. Further, the TGI is 0.0454 µM in the assay on UACC-62 melanoma, 10.7 µM with HS 578T breast, 0.0316 µM with SN12C renal and 0.0626 µM in the assay with COLO 205 colon.
With `c1ccc(CC(Nc2cccnc2)c2ccccc2)cc1` (stereo unspecified), the TGI is 50.1 µM in the assay on HL-60(TB) leukemia; above 100 µM in the assay with SK-MEL-28 melanoma; 56.5 µM in the assay with RPMI-8226 leukemia; 51.4 µM in the assay on NCI-H226 lung; above 100 µM with CAKI-1 renal; 98.3 µM in the assay on EKVX NSCLC. Moreover, the TGI turned out to be 36.9 µM in the assay on UACC-62 melanoma, 95.2 µM with HS 578T breast, 50.8 µM in the assay on SN12C renal and 37 µM with COLO 205 colon.
Take `CCC(C)C1NC(=O)C(NC(=O)C(CC(C)C)N(C)C(=O)[C@@H]2CC(O)CN2C(=O)[C@H](C)O)C(C)OC(=O)[C@H](Cc2ccc(OC)cc2)N(C)C(=O)[C@@H]2CCCN2C(=O)[C@H](CC(C)C)NC(=O)C(C)C(=O)[C@H](C(C)C)OC(=O)CC1O` (stereo partly specified): the GI50 with HL-60(TB) leukemia is 0.154 µM; in the assay on SK-MEL-28 melanoma it was below 0.01 µM; in the assay on RPMI-8226 leukemia, 0.0695 µM; in the assay on NCI-H226 lung, 0.0799 µM; in the assay with CAKI-1 renal it was 0.229 µM; with UACC-62 melanoma, below 0.01 µM. The GI50 in the assay on HS 578T breast was below 0.01 µM; with SN12C renal, 0.0572 µM; in the assay with COLO 205 colon, 0.0163 µM. The TGI in the assay on HL-60(TB) leukemia was 2.03 µM; with SK-MEL-28 melanoma it was 0.467 µM and 0.256 µM; in the assay with RPMI-8226 leukemia, 1.77 µM; in the assay with NCI-H226 lung it was 0.521 µM and 0.572 µM; in the assay with CAKI-1 renal, 2.99 µM; in the assay on EKVX NSCLC, 3.32 µM. Further, the TGI in the assay on UACC-62 melanoma was 0.361 µM and 0.0495 µM; in the assay on HS 578T breast it was 0.283 µM and 0.0317 µM; in the assay on SN12C renal, 0.806 µM and 3.2 µM; with COLO 205 colon, 0.273 µM and 1.69 µM.
Turning to `CCN(CC)CC(O)c1cc(-c2ccc(Cl)cc2)nc2c(C)c(Cl)ccc12` (stereo unspecified), the GI50 in the assay with HL-60(TB) leukemia is 2.1 µM; with SK-MEL-28 melanoma, 1.78 µM; in the assay on RPMI-8226 leukemia, 2.41 µM; with NCI-H226 lung, 1.65 µM; in the assay on CAKI-1 renal, 1.29 µM; with EKVX NSCLC, 1.46 µM. Besides, the GI50 was 1.84 µM in the assay on UACC-62 melanoma, 1.87 µM in the assay on HS 578T breast, 1.5 µM with SN12C renal and 1.77 µM in the assay on COLO 205 colon. Further, the TGI is 4.57 µM in the assay with HL-60(TB) leukemia; 3.17 µM in the assay with SK-MEL-28 melanoma; 5.71 µM in the assay on RPMI-8226 leukemia; 3.18 µM with NCI-H226 lung; 2.69 µM with CAKI-1 renal; 2.9 µM in the assay on EKVX NSCLC. For the same molecule, the TGI in the assay on UACC-62 melanoma stood at 3.39 µM; in the assay with HS 578T breast, 4.33 µM; with SN12C renal, 3.22 µM; in the assay on COLO 205 colon it was 3.35 µM.
As for `COc1c(B(O)O)cccc1-c1nc2c(F)cc3n[nH]c(C)c3c2c2c1CCCC2`, the GI50 with HL-60(TB) leukemia is 0.5 µM; with SK-MEL-28 melanoma, 2.1 µM; in the assay with RPMI-8226 leukemia it was 0.655 µM; in the assay on NCI-H226 lung it was 0.892 µM; with CAKI-1 renal, 0.0106 µM; in the assay on EKVX NSCLC, 1.42 µM. Further, the GI50 was 1.55 µM in the assay with UACC-62 melanoma, 0.118 µM in the assay with HS 578T breast, 0.854 µM in the assay with SN12C renal and 1.51 µM in the assay with COLO 205 colon. Besides, the TGI in the assay on HL-60(TB) leukemia was above 12.9 µM; with SK-MEL-28 melanoma, above 38.8 µM; in the assay with RPMI-8226 leukemia, 4.81 µM; in the assay with NCI-H226 lung, above 14.2 µM; in the assay on CAKI-1 renal it was 0.213 µM; in the assay with EKVX NSCLC, above 27 µM. For the same molecule, the TGI in the assay on UACC-62 melanoma is 8.39 µM; with HS 578T breast, above 50 µM; in the assay on SN12C renal, above 50 µM; in the assay on COLO 205 colon, 5.26 µM.

(Values after PubChem BioAssay (NCI).)
